Source: ChEMBL document CHEMBL4433249, “New sensible method to quantize the intestinal absorption of receptor ligands” (Bioorg Med Chem, 2019)

What was measured:
[1] = Drug absorption in Wistar rat everted gut sac at 3000 nM; format: ADME, tissue-based, Intestine; details: 3 µM
[2] = Drug absorption in Wistar rat small intestinal serosal fluid at 3000 nM incubated for 60 mins by HPLC-DAD analysis; format: ADME; details: 1 h, 3 µM
[3] = (§1) Drug absorption in Wistar rat small intestinal mucosal fluid assessed as displacement of [3H]HEMADO from recombinant human A3 receptor expressed in CHO cells at 3000 nM exposed to mucosal fluid derived from 60 mins compound treated sac followed by further incubation for 3 hrs by scintillation counting based radioligand binding assay; format: cell-based, Mucosa of small intestine; details: 3 µM
[4] = as §1, with “10000” for “3000”; format: cell-based, Mucosa of small intestine; details: 10 µM
[5] = Drug absorption in Wistar rat everted gut sac at 300 nM; format: ADME, tissue-based, Intestine; details: 0.3 µM
[6] = as §1, with “serosal” for “mucosal”, “1000” for “3000”; format: cell-based; details: 1 µM
[7] = Apparent permeability of the compound across Wistar rat everted gut sac at 10000 nM; format: ADME, tissue-based, Intestine
[8] = Drug retention in Wistar rat everted gut sac at 10000 nM; format: ADME, tissue-based, Intestine; details: 10 µM
[9] = Drug retention in Wistar rat everted gut sac at 300 nM; format: ADME, tissue-based, Intestine; details: 0.3 µM
[10] = as §1, with “300” for “3000”; format: cell-based, Mucosa of small intestine; details: 0.3 µM
[11] = Apparent permeability of the compound across Wistar rat everted gut sac at 1000 nM; format: ADME, tissue-based, Intestine
[12] = Apparent permeability of the compound across Wistar rat everted gut sac at 300 nM; format: ADME, tissue-based, Intestine
[13] = Drug absorption in Wistar rat everted gut sac at 1000 nM; format: ADME, tissue-based, Intestine; details: 1 µM
[14] = Drug absorption in Wistar rat small intestinal serosal fluid at 10000 nM incubated for 60 mins by HPLC-DAD analysis; format: ADME; details: 1 h, 10 µM
[15] = as §1, with “1000” for “3000”; format: cell-based, Mucosa of small intestine; details: 1 µM
[16] = Apparent permeability of the compound across Wistar rat everted gut sac at 3000 nM; format: ADME, tissue-based, Intestine
[17] = as §1, with “serosal” for “mucosal”, “300” for “3000”; format: cell-based; details: 0.3 µM
[18] = as §1, with “serosal” for “mucosal”, “10000” for “3000”; format: cell-based; details: 10 µM
[19] = Drug retention in Wistar rat everted gut sac at 1000 nM; format: ADME, tissue-based, Intestine; details: 1 µM
[20] = Drug absorption in Wistar rat everted gut sac at 10000 nM; format: ADME, tissue-based, Intestine; details: 10 µM
[21] = Drug retention in Wistar rat everted gut sac at 3000 nM; format: ADME, tissue-based, Intestine; details: 3 µM
[22] = as §1, with “serosal” for “mucosal”; format: cell-based; details: 3 µM

- Drug absorption [1]: 12.4%
- Drug absorption [2]: 550 nM
- Drug absorption [3]: 857 nM
- Drug absorption [4]: 2088 nM
- Drug absorption [5]: 12%
- Drug absorption [6]: 119 nM
- Papp at 10 µM [7]: 8.4 ×10⁻⁶ cm/s
- Drug uptake [8]: 67%
- Drug uptake [9]: 44%
- Drug absorption [10]: 133 nM
- Papp at 1 µM [11]: 8.4 ×10⁻⁶ cm/s
- Papp at 0.3 µM [12]: 8.5 ×10⁻⁶ cm/s
- Drug absorption [13]: 11.9%
- Drug absorption [14]: 2000 nM
- Drug absorption [15]: 224 nM
- Papp at 3 µM [16]: 8.5 ×10⁻⁶ cm/s
- Drug absorption [17]: 36 nM
- Drug absorption [18]: 1180 nM
- Drug uptake [19]: 65%
- Drug absorption [20]: 11.8%
- Drug uptake [21]: 59%
- Drug absorption [22]: 373 nM
Structure (SMILES): CNC(=O)[C@H]1O[C@@H](n2cnc3c(NC)nc(C#Cc4ccccc4)nc32)[C@H](O)[C@@H]1O
